The values that follow are results of earlier work, collected in patent publication US11077096B2, “Modified release compositions comprising tacrolimus” (Veloxis Pharmaceuticals A/S, priority 2003, dated 2021).

Some results are limits rather than exact numbers.

Experiment in data set [1]: not given
The source holds these as a separate data set.

The bioavailability is the share of a dose that reaches the circulation, judged against a reference dose that is usually intravenous. For `C=CC[C@@H]1/C=C(\C)C[C@H](C)C[C@H](OC)[C@H]2O[C@@](O)(C(=O)C(=O)N3CCCC[C@H]3C(=O)OC(/C(C)=C/[C@@H]3CC[C@@H](O)[C@H](OC)C3)[C@H](C)[C@@H](O)CC1=O)[C@H](C)C[C@@H]2OC` (stereo partly drawn) [Tacrolimus], the Solubility in chloroform result (chloroform) was “very soluble”. Further, the Solubility in ethanol result (ethanol) is recorded as “freely soluble”. In addition, the Solubility in methanol entry (methanol) is recorded as “very soluble”. For the same compound, for the setting “water”, the Solubility in water entry is “practically insoluble”. Moreover, the bioavailability in data set [1] (after oral administration) is listed as no more than 20%. Further, the “mean time-to-peak concentration (tmax)” value in data set [1] (oral administration, healthy subjects or kidney or liver transplanted patients) was 1 to 2 h.
